For 14 compounds, EC50 and IC50 results are on record in ChEMBL document CHEMBL4184187, “Current knowledge on the nucleotide agonists for the P2Y2 receptor” (Bioorg Med Chem, 2018).

As usually defined, the EC50 is the concentration giving half of the maximal effect. As a reminder, the IC50 is the concentration that inhibits the measured activity by half. A higher IC50 goes with weaker potency.

Test [1] deals with T1, P2Y purinoceptor 2 (Homo sapiens, UniProt P41231). Kind of test: Agonist activity at human P2Y2 receptor expressed in 1321N1 cells assessed as [3H]-inositol phosphate accumulation measured after 90 mins by anion exchange chromatographic method. The class given is functional, cell-based.
The target of test [2] is P2Y purinoceptor 1 (Homo sapiens, UniProt P47900). Kind of test: Antagonist activity at P2Y1 receptor (unknown origin). It counts as functional.
For test [3], the target named is T1, P2Y purinoceptor 2. Put plainly: Agonist activity at P2Y2 receptor (unknown origin). It counts as functional.
Test [4] deals with T1, P2Y purinoceptor 2. Put plainly: Agonist activity at P2Y2 receptor in NG108-15 cells (unknown origin). It counts as functional, cell-based.
Test [5] concerns the target T1, P2Y purinoceptor 2. Put plainly: Agonist activity at P2Y2 receptor in BEA cells (unknown origin). The class given is functional, cell-based.
Test [6] addresses T1, P2Y purinoceptor 2. Put plainly: Agonist activity at P2Y2 receptor in human CF/T43 cells. The class given is functional, cell-based.

T1 sequence (P41231 whole entry): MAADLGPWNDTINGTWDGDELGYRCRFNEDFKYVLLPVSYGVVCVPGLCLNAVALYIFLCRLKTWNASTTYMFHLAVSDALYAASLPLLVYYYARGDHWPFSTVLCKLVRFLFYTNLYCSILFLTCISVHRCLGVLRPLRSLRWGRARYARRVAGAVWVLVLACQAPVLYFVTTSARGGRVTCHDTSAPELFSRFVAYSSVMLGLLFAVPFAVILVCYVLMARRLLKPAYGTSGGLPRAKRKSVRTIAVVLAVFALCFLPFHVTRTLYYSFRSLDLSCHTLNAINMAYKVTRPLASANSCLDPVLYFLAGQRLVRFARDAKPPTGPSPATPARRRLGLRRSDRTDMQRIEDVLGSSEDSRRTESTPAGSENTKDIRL
Sequence of P2Y purinoceptor 1 (P47900 whole entry): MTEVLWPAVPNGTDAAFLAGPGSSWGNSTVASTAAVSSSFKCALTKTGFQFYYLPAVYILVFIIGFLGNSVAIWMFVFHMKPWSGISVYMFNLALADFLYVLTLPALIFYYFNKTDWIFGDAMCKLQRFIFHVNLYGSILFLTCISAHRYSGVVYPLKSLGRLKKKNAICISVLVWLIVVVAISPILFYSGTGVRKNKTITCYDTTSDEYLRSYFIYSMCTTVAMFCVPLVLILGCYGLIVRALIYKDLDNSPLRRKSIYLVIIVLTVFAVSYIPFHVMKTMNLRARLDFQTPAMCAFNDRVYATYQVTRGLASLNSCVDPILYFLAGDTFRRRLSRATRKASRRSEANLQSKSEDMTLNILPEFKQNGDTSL

In the case of `CCCCCCSc1ccn([C@@H]2O[C@H](COP(=O)(O)OP(=O)(O)OP(=O)(O)O)[C@@H](O)[C@H]2O)c(=O)n1`, the EC50 in test [1] stood at 840 nM.
`CNc1ncnc2c1ncn2[C@@H]1C[C@H](COP(=O)(O)O)[C@@H](OP(=O)(O)O)C1` had an IC50 in test [2] of 148 nM.
In test [3], `O=c1[nH]c(=O)n([C@@H]2O[C@H](COP(=O)(O)OP(=O)(O)OP(=O)(O)O)[C@@H](O)[C@H]2O)cc1Br` showed an EC50 of 220 nM.
With `O=c1nc(N2CCOCC2)ccn1[C@@H]1O[C@H](COP(=O)(O)OP(=O)(O)OP(=O)(O)O)[C@@H](O)[C@H]1O`, the concentration giving a half-maximal response (EC50) in test [1] came to 10200 nM.
Still for that read-out and setting: the result for `COc1ccn([C@@H]2O[C@H](COP(=O)(O)OP(=O)(O)OP(=O)(O)O)[C@@H](O)[C@H]2O)c(=O)n1` reads 15500 nM; that for `CSc1ccn([C@@H]2O[C@H](COP(=O)(O)OP(=O)(O)OP(=O)(O)O)[C@@H](O)[C@H]2O)c(=O)n1`, 3100 nM; that for `CCCCCCNc1ccn([C@@H]2O[C@H](COP(=O)(O)OP(=O)(O)OP(=O)(O)O)[C@@H](O)[C@H]2O)c(=O)n1`, 26300 nM.
Same read-out and setting: the result for `CN(C)c1ccn([C@@H]2O[C@H](COP(=O)(O)OP(=O)(O)OP(=O)(O)O)[C@@H](O)[C@H]2O)c(=O)n1` reads 29800 nM; that for `O=c1[nH]c(=S)ccn1[C@@H]1O[C@H](COP(=O)(O)OP(=O)(O)OP(=O)(O)O)[C@@H](O)[C@H]1O`, 710 nM.
`O=c1ccn([C@@H]2O[C@H](COP(=O)(O)OP(=O)(O)OP(=O)(O)O)[C@@H](O)[C@H]2O)c(=O)[nH]1` [URIDINE TRIPHOSPHATE]: the EC50 came out at 1250 nM in test [4], 120 nM in test [1] and 160 nM in test [5].
With `Nc1ccn([C@@H]2O[C@H](COP(=O)(O)OP(=O)(O)OP(=O)(O)O)[C@@H](O)[C@H]2O)c(=O)n1` [CYSTETINE TRIPHOSPHATE], the EC50 in test [1] was found to be 37800 nM.
Take `Nc1ncnc2c1ncn2[C@@H]1O[C@H](COP(=O)(O)OP(=O)(O)OP(=O)(O)O)[C@@H](O)[C@H]1O` [ADENOSINE TRIPHOSPHATE]: the figures for the EC50 in test [4], in test [6] and in test [5] were 180 nM, 200 nM and 200 nM, respectively.
As to `C#CCNC(=O)COc1ccc(CCCO/N=c2\ccn([C@@H]3O[C@H](COP(=O)(O)OP(=O)(O)OP(=O)(O)O)[C@@H](O)[C@H]3O)c(=O)[nH]2)cc1`, in test [1], the EC50 was 109 nM.
The same measure, in the same setting: the result for `CCCCCCOc1ccn([C@@H]2O[C@H](COP(=O)(O)OP(=O)(O)OP(=O)(O)O)[C@@H](O)[C@H]2O)c(=O)n1` reads 489000 nM.
